Assay results published in patent US20230114728A1 (Venatorx Pharmaceuticals, Inc., priority 2019, published 2023).
≈ marks a conversion by molar mass, not a printed value.

How the values were obtained:
Experiment in all cases: Broth microdilution MIC in CAMHB
Assay type in all cases: cell-based
[1] = system: A. baumannii ATCC 19606; conditions: Acinetobacter baumannii, ATCC19606; MHB; read-out: Minimum Inhibitory Concentration, A. baumannii ATCC 19606
Procedure, shortened: (§1)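 Hyper-permeable or efflux-deficient strains serve to probe outer-membrane penetration. Growth inhibition is scored visually after 16-20 h at 37° C in CAMHB, starting from 2-8×10^5 CFU/mL.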

[2] = system: E. coli 901C; conditions: Escherichia coli; E. coli 901C (hyper-permeable); MHB; read-out: Minimum Inhibitory Concentration, E. coli 901C
Procedure, shortened: as §1

[3] = system: E. coli AG100A; conditions: Escherichia coli, read-out: Minimum Inhibitory Concentration, E. coli AG100A
Procedure, shortened: as §1

[4] = system: E. coli AG100; conditions: Escherichia coli; E. coli AG100 (wild-type parent); MHB; read-out: Minimum Inhibitory Concentration, E. coli AG100
Procedure, shortened: as §1

[5] = system: E. coli ATCC 25922; conditions: Escherichia coli, ATCC25922; E. coli ATCC 25922; MHB; read-out: Minimum Inhibitory Concentration, E. coli 25922
Procedure, shortened: as §1

[6] = system: E. coli D22; conditions: Escherichia coli; E. coli D22 (hyper-permeable); MHB; read-out: Minimum Inhibitory Concentration, E. coli D22
Procedure, shortened: as §1

[7] = system: K. pneumoniae 848844 producing SHV-11 and KPC-2; conditions: Klebsiella pneumoniae, read-out: Minimum Inhibitory Concentration, K. pneumoniae 848844
Procedure, shortened: as §1

[8] = system: K. pneumoniae SI-117 producing VIM-1; conditions: Klebsiella pneumoniae, read-out: Minimum Inhibitory Concentration, K. pneumoniae SI-117
Procedure, shortened: as §1

[9] = system: K. pneumoniae UMM producing SHV-5 and KPC-2; conditions: Klebsiella pneumoniae, read-out: Minimum Inhibitory Concentration, K. pneumoniae UMM
Procedure, shortened: as §1

[10] = system: P. aeruginosa (ΔmexAB-oprM); conditions: Pseudomonas aeruginosa, read-out: Minimum Inhibitory Concentration, P. aeruginosa ΔmexAB-OprM
Procedure, shortened: as §1

[11] = system: P. aeruginosa ATCC 27853; conditions: Pseudomonas aeruginosa, ATCC27853; MHB; read-out: Minimum Inhibitory Concentration, P. aeruginosa ATCC 27853
Procedure, shortened: as §1

[12] = system: P. aeruginosa ATCC 35151; conditions: Pseudomonas aeruginosa, ATCC35151; MHB; hyper-permeable strain; read-out: Minimum Inhibitory Concentration, P. aeruginosa ATCC 35151
Procedure, shortened: as §1

SMILES | MIC [1] [µg/mL] | MIC [2] [µg/mL] | MIC [3] [µg/mL] | MIC [4] [µg/mL] | MIC [5] [µg/mL] | MIC [6] [µg/mL] | MIC [7] [µg/mL] | MIC [8] [µg/mL] | MIC [9] [µg/mL] | MIC [10] [µg/mL] | MIC [11] [µg/mL] | MIC [12] [µg/mL]
CCN1CCN(C(=O)N[C@@H](C(=O)N[C@H]2Cc3cccc(C(=O)O)c3OB2O)c2ccc(C(=O)O)cc2)C(=O)C1=O (single isomer, unassigned) [Example 124] | > 128 | < 0.25 | 2 to 4 (≈ 3.62 to 7.24 µM) | 8 to 16 (≈ 14.5 to 29 µM) | 32 to 64 (≈ 57.9 to 116 µM) | 2 to 4 (≈ 3.62 to 7.24 µM) | > 128 | > 128 | 32 to 64 (≈ 57.9 to 116 µM) | 2 to 4 (≈ 3.62 to 7.24 µM) | 32 to 64 (≈ 57.9 to 116 µM) | < 0.25
CCN1CCN(C(=O)N[C@H](C(=O)N[C@H]2Cc3ccc(F)c(C(=O)O)c3OB2O)c2c(F)cc(O)c(O)c2Cl)C(=O)C1=O (single isomer, unassigned) [Example 125] | > 128 | < 0.25 | 2 to 4 (≈ 3.27 to 6.55 µM) | 32 to 64 (≈ 52.4 to 105 µM) | 32 to 64 (≈ 52.4 to 105 µM) | 2 to 4 (≈ 3.27 to 6.55 µM) | 32 to 64 (≈ 52.4 to 105 µM) | 32 to 64 (≈ 52.4 to 105 µM) | 32 to 64 (≈ 52.4 to 105 µM) | 32 to 64 (≈ 52.4 to 105 µM) | > 128 | 2 to 4 (≈ 3.27 to 6.55 µM)
O=C(O)c1cccc2c1OB(O)[C@@H](NC(=O)[C@H](NC(=O)N1CCN(CCF)C(=O)C1=O)c1c(F)cc(O)cc1F)C2 (single isomer, unassigned) [Example 126] | > 128 | < 0.25 |  | 8 to 16 (≈ 13.8 to 27.7 µM) | 8 to 16 (≈ 13.8 to 27.7 µM) | 0.5 to 1 (≈ 0.865 to 1.73 µM) | 32 to 64 (≈ 55.3 to 111 µM) | 8 to 16 (≈ 13.8 to 27.7 µM) | 8 to 16 (≈ 13.8 to 27.7 µM) | 8 to 16 (≈ 13.8 to 27.7 µM) | > 128 | 2 to 4 (≈ 3.46 to 6.92 µM)
NCCN1CCN(C(=O)N[C@@H](C(=O)N[C@H]2Cc3ccc(F)c(C(=O)O)c3OB2O)c2c(F)cc(O)cc2F)C(=O)C1=O (single isomer, unassigned) [Example 127] | > 128 | 2 to 4 (≈ 3.37 to 6.74 µM) | 8 to 16 (≈ 13.5 to 27 µM) | 8 to 16 (≈ 13.5 to 27 µM) | 8 to 16 (≈ 13.5 to 27 µM) | 2 to 4 (≈ 3.37 to 6.74 µM) | 32 to 64 (≈ 53.9 to 108 µM) | 32 to 64 (≈ 53.9 to 108 µM) | 8 to 16 (≈ 13.5 to 27 µM) | 8 to 16 (≈ 13.5 to 27 µM) | > 128 | 0.5 to 1 (≈ 0.843 to 1.69 µM)
NCCN1CCN(C(=O)N[C@H](C(=O)N[C@H]2Cc3ccc(F)c(C(=O)O)c3OB2O)c2c(F)cc(O)cc2F)C(=O)C1=O (single isomer, unassigned) [Example 128] | > 128 | 8 to 16 (≈ 13.5 to 27 µM) | 32 to 64 (≈ 53.9 to 108 µM) | 32 to 64 (≈ 53.9 to 108 µM) | 32 to 64 (≈ 53.9 to 108 µM) | 8 to 16 (≈ 13.5 to 27 µM) | > 128 | > 128 | 32 to 64 (≈ 53.9 to 108 µM) | 32 to 64 (≈ 53.9 to 108 µM) | > 128 | 2 to 4 (≈ 3.37 to 6.74 µM)
CS(=O)(=O)N1CCN(C(=O)N[C@@H](C(=O)N[C@H]2Cc3cccc(C(=O)O)c3OB2O)c2c(F)cc(O)cc2F)C1=O (single isomer, unassigned) [Example 135] | > 128 | < 0.25 | 0.5 to 1 (≈ 0.859 to 1.72 µM) | 32 to 64 (≈ 55 to 110 µM) | 8 to 16 (≈ 13.7 to 27.5 µM) | 2 to 4 (≈ 3.43 to 6.87 µM) | 32 to 64 (≈ 55 to 110 µM) | 32 to 64 (≈ 55 to 110 µM) | 32 to 64 (≈ 55 to 110 µM) | 32 to 64 (≈ 55 to 110 µM) | > 128 | 2 to 4 (≈ 3.43 to 6.87 µM)
CCN1CCN(C(=O)N[C@@H](C(=O)N[C@H]2Cc3cccc(C(=O)O)c3OB2O)c2ccc(C(=O)O)c(Cl)c2)C(=O)C1=O (single isomer, unassigned) [Example 154] | 32 to 64 (≈ 54.5 to 109 µM) | < 0.25 | 8 to 16 (≈ 13.6 to 27.3 µM) | 32 to 64 (≈ 54.5 to 109 µM) | 32 to 64 (≈ 54.5 to 109 µM) | 2 to 4 (≈ 3.41 to 6.82 µM) | > 128 |  | 32 to 64 (≈ 54.5 to 109 µM) | 8 to 16 (≈ 13.6 to 27.3 µM) | > 128 | < 0.25
CCN1CCN(C(=O)NC(C(=O)N[C@H]2Cc3cccc(C(=O)O)c3OB2O)c2c(F)cc(O)cc2F)C(=O)C1=O (stereo partly drawn) [Example 105, (3R)-3-(2-(2,6-difluoro-4-hydroxyphenyl)-2-(4-ethyl-2,3-dioxopiperazine-1-carboxamido)acetamido)-2-hydroxy-3,4-dihydro-2H-benzo[e][1,2]oxaborinine-8-carboxylic acid] |  | < 0.25 | 0.5 to 1 (≈ 0.892 to 1.78 µM) | 8 to 16 (≈ 14.3 to 28.6 µM) | 8 to 16 (≈ 14.3 to 28.6 µM) | 0.5 to 1 (≈ 0.892 to 1.78 µM) | 32 to 64 (≈ 57.1 to 114 µM) | 32 to 64 (≈ 57.1 to 114 µM) | 8 to 16 (≈ 14.3 to 28.6 µM) |  |  | 
